Assays:
[1] = target: T1, human adenosine A2A receptor (Homo sapiens, UniProt P29274); assay: [3H]-SCH-58261 binding assay, human adenosine A2A receptor expressed in CHO cell membranes (SPA); settings: [3H]-SCH-58261 1 nM, Ki by Cheng-Prussoff equation; for Ki: read-out: hA2 (pKi) (converted)
T1 construct: expressed in transfected cells; host or cells: CHO cells, semliki forest virus expression system; membrane preparation
Protocol: Human Adenosine A2A Receptor
The human adenosine A2A receptor was recombinantly expressed in chinese hamster ovary (CHO) cells using the semliki forest virus expression system. Cells were harvested, washed twice by centrifugation, homogenised and again washed by centrifugation. The final washed membrane pellet was suspended in a Tris (50 mM) buffer containing 120 mM NaCl, 5 mM KCl, 2 mM CaCl2 and 10 mM MgCl2 (pH 7.4) (buffer A). The [^3H]-SCH-58261 (Dionisotti et al., 1997, Br J Pharmacol 121, 353; 1 nM) binding assay was carried out in 96-well plates in the presence of 2.5 μg of membrane protein, 0.5 mg of Ysi-poly-1-lysine SPA beads and 0.1 U adenosine deaminase in a final volume of 200 μl of buffer A. Non-specific binding was defined using xanthine amine congener (XAC; 2 μM). Compounds were tested at 10 concentrations from 10 μM-0.3 nM. All assays were conducted in duplicate and repeated at least two times. Assay plates were incubated for 1 hour at room temperature before centrifugation and then bound ligand determined using a Packard Topcount scintillation counter. IC50 values were calculated using a non-linear curve fitting program and Ki values calculated using the Cheng-Prussoff equation.

T1 sequence (P29274 whole entry): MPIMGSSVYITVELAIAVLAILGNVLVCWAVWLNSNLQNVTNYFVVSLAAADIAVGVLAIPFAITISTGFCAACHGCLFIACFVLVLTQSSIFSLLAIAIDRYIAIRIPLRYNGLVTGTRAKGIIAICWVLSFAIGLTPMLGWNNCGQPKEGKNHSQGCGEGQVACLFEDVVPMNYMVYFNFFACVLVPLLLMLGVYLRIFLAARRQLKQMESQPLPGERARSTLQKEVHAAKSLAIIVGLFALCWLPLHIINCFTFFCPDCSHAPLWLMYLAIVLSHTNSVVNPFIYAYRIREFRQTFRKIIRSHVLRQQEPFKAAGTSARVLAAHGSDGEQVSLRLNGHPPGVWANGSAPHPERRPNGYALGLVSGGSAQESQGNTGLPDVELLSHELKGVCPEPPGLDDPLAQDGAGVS

SMILES	Ki [1]	melting point	hA2 (pKi) [1]
COc1ccc(C2CCOCC2)c2sc(NC(=O)N3CCC(O)CC3)nc12 [Example 45, 4-Hydroxy-piperidine-1-carboxylic acid [4-methoxy-7-(tetrahydro-pyran-4-yl)-benzothiazol-2-yl]-amide]	1.62 nM	106 to 109 °C	
COC(=O)Nc1nc2c(OC)ccc(C3=CCCCC3)c2s1 [Example 22, (7-Cyclohex-1-enyl-4-methoxy-benzothiazol-2-yl)-carbamic acid methyl ester]	10 nM	164 to 173 °C	
COC(=O)Nc1nc2c(OC)ccc(C3=CCOCC3)c2s1 [Example 1, [7-(3,6-Dihydro-2H-pyran-4-yl)-4-methoxy-benzothiazol-2-yl]-carbamic acid methyl ester]	4.9 nM		
COc1ccc(C2CCCCO2)c2sc(NC(=O)c3ccnc(Br)c3)nc12 (stereo not shown) [Example 39, 2-Bromo-N-[4-methoxy-7-(tetrahydro-pyran-2-yl)-benzothiazol-2-yl]-isonicotinamide]	3.8 nM		
COc1ccc(C2CCOCC2)c2sc(NC(=O)c3ccc(CCl)cc3)nc12 [Example 7, 4-Chloromethyl-N-[4-methoxy-7-(tetrahydro-pyran-4-yl)-benzothiazol-2-yl]-benzamide]	1.1 nM		
COc1ccc(C2CCOCC2)c2sc(NC(=O)c3ccnc(C(C)C)c3)nc12 [Example 36, 2-Isopropyl-N-[4-methoxy-7-(tetrahydro-pyran-4-yl)-benzothiazol-2-yl]-isonicotinamide]	1.17 nM		
COc1ccc(C2=CCN(C(C)=O)CC2)c2sc(NC(=O)c3ccc(F)cc3)nc12 [Example 11, N-[7-(1-Acetyl-1,2,3,6-tetrahydro-pyridin-4-yl)-4-methoxy-benzothiazol-2-yl]-4-fluoro-benzamide]	5.01 nM		
COCCNc1cc(C(=O)Nc2nc3c(OC)ccc(C4CCOCC4)c3s2)ccn1 [Example 46, 2-(2-Methoxy-ethylamino)-N-[4-methoxy-7-(tetrahydro-pyran-4-yl)-benzothiazol-2-yl]-isonicotinamide]	0.871 nM		
COc1cc(C(=O)Nc2nc3c(OC)ccc(C4CCOCC4)c3s2)ccn1 [Example 31, 2-Methoxy-N-[4-methoxy-7-(tetrahydro-pyran-4-yl)-benzothiazol-2-yl]-isonicotinamide]	1.45 nM		
COc1ccc(C2CCOCC2)c2sc(NC(=O)c3ccnc(Br)c3)nc12 [Example 4, 2-Bromo-N-[4-methoxy-7-(tetrahydro-pyran-4-yl)-benzothiazol-2-yl]-isonicotinamide]	1.74 nM		
COc1ccc(C2CCN(C(C)=O)CC2)c2sc(NC(=O)c3ccc(C)cc3)nc12 [Example 19, N-[7-(1-Acetyl-piperidin-4-yl)-4-methoxy-benzothiazol-2-yl]-4-methyl-benzamide]	3.98 nM		
COCCN(C)c1cc(C(=O)Nc2nc3c(OC)ccc(C4CCOCC4)c3s2)ccn1 [Example 47, 2-[(2-Methoxy-ethyl)-methyl-amino]-N-[4-methoxy-7-(tetrahydro-pyran-4-yl)-benzothiazol-2-yl]-isonicotinamide]	1.51 nM		
COc1ccc(C2CCCCO2)c2sc(NC(=O)c3ccnc(N4CCOCC4)c3)nc12 (stereo not shown) [Example 42, N-[4-Methoxy-7-(tetrahydro-pyran-2-yl)-benzothiazol-2-yl]-2-morpholin-4-yl-isonicotinamide]	2.04 nM		
COCCN(C)Cc1ccc(C(=O)Nc2nc3c(OC)ccc(C4CCCCC4)c3s2)cc1 [Example 24, N-(7-Cyclohexyl-4-methoxy-benzothiazol-2-yl)-4-{[(2-methoxy-ethyl)-methyl-amino]-methyl}-benzamide]	1.58 nM		
COc1ccc(C2CCNCC2)c2sc(NC(=O)N3CCOCC3)nc12.Cl		314 to 315 °C	
CCCc1cc(C(=O)Nc2nc3c(OC)ccc(C4CCOCC4)c3s2)ccn1 [Example 34, N-[4-Methoxy-7-(tetrahydro-pyran-4-yl)-benzothiazol-2-yl]-2-propyl-isonicotinamide]	1.82 nM		
COC(=O)Nc1nc2c(OC)ccc(C3CCOCC3)c2s1 [Example 2, [4-Methoxy-7-(tetrahydro-pyran-4-yl)-benzothiazol-2-yl]-carbamic acid methyl ester]	11.5 nM		
COCCN(C)Cc1ccc(C(=O)Nc2nc3c(OC)ccc(C4CCN(C(C)=O)CC4)c3s2)cc1 [Example 18, N-[7-(1-Acetyl-piperidin-4-yl)-4-methoxy-benzothiazol-2-yl]-4-{[(2-methoxy-ethyl)-methylamino]-methyl}-benzamide]	7.94 nM		

SMILES	Ki [1]	melting point	hA2 (pKi) [1]
COc1ccc(C2CCOCC2)c2sc(NC(=O)c3ccc(C)nc3)nc12 [Example 28, N-[4-Methoxy-7-(tetrahydro-pyran-4-yl)-benzothiazol-2-yl]-6-methyl-nicotinamide]	1.07 nM		
COc1ccc(C2CCCCO2)c2sc(NC(=O)c3ccnc(C)c3)nc12 (stereo not shown) [Example 41, N-[4-Methoxy-7-(tetrahydro-pyran-2-yl)-benzothiazol-2-yl]-2-methyl-isonicotinamide]	3.39 nM		
COc1ccc(C2CCOCC2)c2sc(NC(=O)c3ccc(F)cc3)nc12 [Example 3, 4-Fluoro-N-[4-methoxy-7-(tetrahydro-pyran-4-yl)-benzothiazol-2-yl]-benzamide]	1.41 nM		
COc1ccc(C2CCN(C(C)=O)CC2)c2sc(NC(=O)c3ccnc(N4CCOCC4)c3)nc12 [Example 20, N-[7-(1-Acetyl-piperidin-4-yl)-4-methoxy-benzothiazol-2-yl]-2-morpholin-4-yl-isonicotinamide]	2.51 nM		
CCc1cc(C(=O)Nc2nc3c(OC)ccc(C4CCOCC4)c3s2)ccn1 [Example 33, 2-Ethyl-N-[4-methoxy-7-(tetrahydro-pyran-4-yl)-benzothiazol-2-yl]-isonicotinamide]	1.66 nM		
COc1cc(C(=O)Nc2nc3c(OC)ccc(C4CCN(C(C)=O)CC4)c3s2)ccn1 [Example 21, N-[7-(1-Acetyl-piperidin-4-yl)-4-methoxy-benzothiazol-2-yl]-2-methoxy-isonicotinamide]	3.98 nM		
CCOc1cc(C(=O)Nc2nc3c(OC)ccc(C4CCOCC4)c3s2)ccn1 [Example 32, 2-Ethoxy-N-[4-methoxy-7-(tetrahydro-pyran-4-yl)-benzothiazol-2-yl]-isonicotinamide]	2.75 nM		
COc1ccc(C2CCN(C(C)=O)CC2)c2sc(NC(=O)c3ccnc(C)c3)nc12 [Example 17, N-[7-(1-Acetyl-piperidin-4-yl)-4-methoxy-benzothiazol-2-yl]-2-methyl-isonicotinamide]	6.31 nM		
COCCN(C)Cc1ccc(C(=O)Nc2nc3c(OC)ccc(C4CCOCC4)c3s2)cc1 [Example 8, 4-{[(2-Methoxy-ethyl)-methyl-amino]-methyl}-N-[4-methoxy-7-(tetrahydro-pyran-4-yl)-benzothiazol-2-yl]-benzamide]	2.4 nM		
COc1ccc(C2=CCNCC2)c2sc(NC(=O)c3ccc(F)cc3)nc12.Cl		268 to 275 °C	
COc1ccc(C2CCCCC2)c2sc(NC(=O)c3ccnc(CN4CCCC4)c3)nc12 [Example 25, N-(7-Cyclohexyl-4-methoxy-benzothiazol-2-yl)-2-pyrrolidin-1-yl-methyl-isonicotinamide]			8.80
COc1ccc(C2CCCCC2)c2sc(NC(=O)c3ccc(F)cc3)nc12 [Example 23, N-(7-Cyclohexyl-4-methoxy-benzothiazol-2-yl)-4-fluoro-benzamide]	0.2 nM	192 to 195 °C	
COc1ccc(C2CCOCC2)c2sc(NC(=O)c3ccnc(C)c3)nc12 [Example 5, N-[4-Methoxy-7-(tetrahydro-pyran-4-yl)-benzothiazol-2-yl]-2-methyl-isonicotinamide]	2.82 nM		
COc1ccc(C2CCN(C(C)=O)CC2)c2sc(NC(=O)c3ccc(F)cc3)nc12 [Example 12, N-[7-(1-Acetyl-piperidin-4-yl)-4-methoxy-benzothiazol-2-yl]-4-fluoro-benzamide]	3.16 nM		
COc1ccc(C2CCOCC2)c2sc(NC(=O)c3ccnc(CN4CCCC4)c3)nc12 [Example 43, N-[4-Methoxy-7-(tetrahydro-pyran-4-yl)-benzothiazol-2-yl]-2-pyrrolidin-1-ylmethyl-isonicotinamide]	1.23 nM	200 to 202 °C	
COc1ccc(C2CCOCC2)c2sc(NC(=O)N3CCOCC3)nc12 [Example 44, Morpholine-4-carboxylic acid [4-methoxy-7-(tetrahydro-pyran-4-yl)-benzothiazol-2-yl]-amide]	1.51 nM		
COc1ccc(C2CCOCC2)c2sc(NC(=O)c3ccnc(N4CCOCC4)c3)nc12 [Example 6, N-[4-Methoxy-7-(tetrahydro-pyran-4-yl)-benzothiazol-2-yl]-2-morpholin-4-yl-isonicotinamide]	0.759 nM		
COc1ccc(C2CCCCO2)c2sc(NC(=O)c3ccc(F)cc3)nc12 (stereo not shown) [Example 40, 4-Fluoro-N-[4-methoxy-7-(tetrahydro-pyran-2-yl)-benzothiazol-2-yl]-benzamide]	3.39 nM		
